Results reported in patent US20140329863A1 (priority 2011, published 2014).

Assays:
CYP1A2 [1] = target: T1, CYP1A2 (Homo sapiens, UniProt P05177); assay: CYP phenotyping in human liver microsomes, furafylline; type: in vitro ADME; details: for CYP Involvement: CYP1A2, NADPH + Furafylline; for % Disappearance / Measured Conc. / Δ % Disappearance: irreversible incubation condition, NADPH + Furafylline
T1 construct: tissue BD Biosciences; host or cells: pooled human liver microsomes
T1 sequence (P05177 1-516): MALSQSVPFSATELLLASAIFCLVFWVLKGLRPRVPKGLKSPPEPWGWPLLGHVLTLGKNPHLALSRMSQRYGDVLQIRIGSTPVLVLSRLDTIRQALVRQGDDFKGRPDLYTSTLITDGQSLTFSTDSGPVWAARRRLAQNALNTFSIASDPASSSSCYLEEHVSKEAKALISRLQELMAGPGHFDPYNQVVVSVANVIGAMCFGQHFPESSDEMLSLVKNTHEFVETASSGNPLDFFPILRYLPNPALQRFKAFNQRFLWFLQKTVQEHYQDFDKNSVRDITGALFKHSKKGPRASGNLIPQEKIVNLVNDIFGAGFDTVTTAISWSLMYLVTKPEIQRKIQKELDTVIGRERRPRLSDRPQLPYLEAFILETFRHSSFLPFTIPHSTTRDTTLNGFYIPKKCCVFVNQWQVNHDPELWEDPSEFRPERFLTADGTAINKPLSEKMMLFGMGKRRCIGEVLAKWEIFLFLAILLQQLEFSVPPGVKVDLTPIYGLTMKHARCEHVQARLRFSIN

Binding in human plasma = details: for Percentage binding, Human plasma, 1 μM / Unbound (%), Human Plasma: 1 μM; for Unbound (%), Human Plasma: mean ± SD, n = 3 (warfarin n = 2)
[2] = Metabolite identification in human, mouse, rat and dog liver microsomes; type: in vitro ADME
Protocol: Samples were injected onto a BetaBasic C18 column and eluted with a gradient elution of mobile phase B (0.1% formic acid in ACN) from 5% to 95% over 30 min. For IND24-containing samples, the transitions monitored were 344→226 (parent); 360→226 and 360→242 (monohydroxylation); and 376→242 and 376→258 (dihydroxylation). […] Plasma and brain homogenate samples from FVB mice in single-dose (10 mg/kg) pharmacokinetic studies were similarly scanned to detect potential hydroxylated metabolites.
Metabolites were separated on a Kinetex 100-Å column (2.6 μm, 100×2.1 mm, Phenomenex, Torrance, Calif.) at ambient temperature. […]
The Orbitrap mass analyzer was calibrated according to the manufacturer's directions using a mixture of caffeine, Met-Arg-Phe-Ala (MRFA) peptide and Ultramark 1621. The parent compounds and their metabolites were detected by full scan mass analysis from m/z 150-1000 at a resolving power of 60,000 [at m/z 400, full width at half maximum (FWHM); 1-s acquisition] with data-dependent MS/MS analyses triggered by the most abundant ion. […] The data obtained was analyzed using Xcalibur v2.1 software (ThermoScientific; Waltham Mass.). Four-decimal monoisotopic masses of the parent compounds and their oxidative metabolites calculated using ChemBioDraw Ultra software version 11.0 (CambridgeSoft; Cambridge, Mass.) were used to interpret further the fragment ions.

CYP2C19 [3] = details: reversible incubation condition, NADPH + N-3-B
CYP2C19 [4] = target: T2, CYP2C19 (Homo sapiens, UniProt P33261); details: for CYP Involvement: CYP2C19, NADPH + N-3-B; for Δ % Disappearance: reversible incubation condition, NADPH + N-3-B
in vitro [5] = details: rat, microsomes, pH 7.4
in vitro [6] = details: FVB, mouse, 20% brain homogenate, pH 7.4, nonbound free fraction in brain, 1 and 10 μM
CYP2C9 = target: T3, CYP2C9 (Homo sapiens, UniProt P11712); assay: Cytochrome P450 phenotyping in human liver microsomes, CYP2C9 (sulfaphenazole); type: in vitro ADME; details: HLM, 5 μM sulfaphenazole
T3 construct: tissue BD Biosciences; host or cells: pooled human liver microsomes
Description: (§1) % Disappearance=[(TC-NADPH TC+NADPH)/TC-NADPH]×100
(§2) for which TC is the test compound.

in vitro [7] = details: plasma
in vitro [8] = details: human, plasma
CYP2C19 [9] = target: T2, CYP2C19; details: HLM, 5 μM (+)-N-3-benzylnirvanol
CYP1A2 [10] = target: T1, CYP1A2; assay: Cytochrome P450 phenotyping in human liver microsomes, CYP1A2 (furafylline); type: in vitro ADME; details: HLM, 10 μM furafylline
Description: as §1, §2

in vitro [11] = details: dog, plasma, pH 7.4
in vitro [12] = details: rat, plasma, pH 7.4

T2 sequence (P33261 whole entry): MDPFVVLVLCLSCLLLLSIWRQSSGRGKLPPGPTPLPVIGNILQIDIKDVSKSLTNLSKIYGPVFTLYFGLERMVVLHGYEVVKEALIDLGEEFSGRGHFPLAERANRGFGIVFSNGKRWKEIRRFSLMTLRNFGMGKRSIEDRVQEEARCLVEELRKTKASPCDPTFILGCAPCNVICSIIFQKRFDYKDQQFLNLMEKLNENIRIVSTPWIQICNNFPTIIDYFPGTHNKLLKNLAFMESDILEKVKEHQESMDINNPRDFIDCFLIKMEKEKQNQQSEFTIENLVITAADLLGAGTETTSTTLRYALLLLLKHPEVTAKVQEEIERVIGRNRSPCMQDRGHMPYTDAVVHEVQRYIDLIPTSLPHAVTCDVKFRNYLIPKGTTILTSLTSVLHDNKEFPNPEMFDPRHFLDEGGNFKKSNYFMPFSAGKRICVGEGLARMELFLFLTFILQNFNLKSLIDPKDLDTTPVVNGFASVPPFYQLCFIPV
T3 sequence (P11712 whole entry): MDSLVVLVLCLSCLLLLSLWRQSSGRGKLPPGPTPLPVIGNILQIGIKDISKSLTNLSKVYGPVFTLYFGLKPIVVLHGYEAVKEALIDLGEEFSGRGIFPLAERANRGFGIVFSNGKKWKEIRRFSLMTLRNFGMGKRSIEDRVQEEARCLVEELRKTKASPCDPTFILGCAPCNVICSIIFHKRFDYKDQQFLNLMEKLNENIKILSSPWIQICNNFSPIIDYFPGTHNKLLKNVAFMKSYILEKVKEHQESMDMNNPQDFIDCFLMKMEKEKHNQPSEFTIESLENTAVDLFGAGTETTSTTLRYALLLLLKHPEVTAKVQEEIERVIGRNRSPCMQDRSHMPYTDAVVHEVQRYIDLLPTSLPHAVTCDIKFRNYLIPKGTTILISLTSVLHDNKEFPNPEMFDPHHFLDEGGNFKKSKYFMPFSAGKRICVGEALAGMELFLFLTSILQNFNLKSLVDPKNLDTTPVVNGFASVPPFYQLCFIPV

| SMILES | CYP Involvement (CYP1A2 [1]) | % Disappearance (CYP1A2 [1]) | Measured Conc. (CYP1A2 [1]) [µM] | Δ % Disappearance (CYP1A2 [1]) [%] | Percentage binding, Human plasma, 1 μM (Binding in human plasma) [%] | Unbound (%), Human Plasma (Binding in human plasma) [%] | Percentage binding, Human plasma, 10 μM (Binding in human plasma) [%] | major metabolites [2] | % Disappearance (CYP2C19 [3]) [%] | Measured Conc. (CYP2C19 [3]) [µM] | CYP Involvement (CYP2C19 [4]) | Δ % Disappearance (CYP2C19 [4]) | fraction unbound at 4 h (in vitro [6]) | further results |
| --- | --- | --- | --- | --- | --- | --- | --- | --- | --- | --- | --- | --- | --- | --- |
| Cc1cccc(Nc2nc(-c3ccc(-c4ccccc4)cc3)cs2)n1 [IND24, (4-Biphenyl-4-yl-thiazol-2-yl)-(6-methyl-pyridin-2-yl)-amine] | Unlikely (unlikely for values <5) | 0 (−23) % | 0.766 | 0 | 95.1 ± 1.03 | 4.91 ± 1.03 | 95.4 ± 1.17 | ring hydroxylation | 18 | 0.537 | Unlikely (unlikely for values <5) | 0 (−18) % | 0.06 to 0.09 | half-life at 1 μM (in vitro [5]): > 1 h |
| Cc1ccnc(Nc2nc(-c3ccc(-c4ccccn4)s3)cs2)c1 [IND81, (4-Methyl-pyridin-2-yl)-[4-(5-pyridin-2-yl-thiophen-2-yl)-thiazol-2-yl]-amine] | Unlikely (unlikely for values <5) | 41% | 0.534 | 43 | 94.2 ± 3.21 | 5.78 ± 3.21 | 95.2 ± 0.86 | ring hydroxylation | 57 | 0.283 | Possible (possible for values 5-10) | 8.5% | 0.06 to 0.09 | involvement of CYP2C9 in metabolism (CYP2C9): unlikely to be involved; fraction unbound at 4 h (in vitro [7]; CD-1, mouse, pH 7.4, free fraction in plasma): ~0.57; fraction unbound at 4 h (in vitro [7]; mouse, pH 7.4, free fraction in plasma): 0.06 to 0.09; fraction unbound at 4 h (in vitro [7]; mouse, pH 7.4, plasma protein binding, 1 and 10 μM): 0.04 to 0.07; fraction unbound at 4 h (in vitro [8]; pH 7.4, free fraction in plasma): ~0.57; fraction unbound at 4 h (in vitro [8]; pH 7.4, plasma protein binding, 1 and 10 μM): 0.04 to 0.07; involvement of CYP2C19 in metabolism (CYP2C19 [9]): might be involved to a smaller extent; involvement of CYP1A2 in metabolism (CYP1A2 [10]): most likely to be involved; fraction unbound at 4 h (in vitro [11]; beagle): ~0.57; fraction unbound at 4 h (in vitro [11]): 0.04 to 0.07; fraction unbound at 4 h (in vitro [12]; Sprague-Dawley): ~0.57; fraction unbound at 4 h (in vitro [12]): 0.04 to 0.07 |
